One block for each molecule: values may come before it.
Columns and labels:
[1] = Photoacoustic imaging analysis of phantoms; type: physicochemical
From the text: For studying the PAI properties of the compound, a cuboid container was half filled with 1% agarose gel to half depth. Different concentrations of compounds aqueous solutions were filled into polyethylene capillaries and then the capillaries were laid on the surface of solidified agarose gel. The capillaries were further covered with thin 1% agarose gel to make the surface smooth. PA spectra and PA/US coregistered images were acquired with a LAZR commercial instrument (VevoLAZR; VisualSonics). It is equipped with a LZ-250 linear array transducer and a tunable Nd:YAG laser system (680-970 nm). In our system, the Vevo LAZR PAI System with a laser at excitation wavelength of 700 nm and a focal depth of 10 mm was used to acquire PA and US images. […] Acquisition rate of 5 frames per second was used for all the experiments. The photoacoustic gain was kept at 42 dB, dynamic range at 18 dB and center frequency of 21 MHz for all studies. US and PA images were obtained sequentially. The PA signals reported were the average pixel intensities from within the Regions of Interest (ROIs). Normalization and quantification of the images were carried out using ImageJ.
Fluorophores with the present design not only have NIR II fluorescence, but also show strong absorption in the NIR-I region and show promise for in vivo photoacoustic imaging. […]

[2] = Optical characterization (emission spectrum, quantum yield, photostability); type: physicochemical; conditions: 808 nm excitation laser
From the text: The NIR fluorescence spectrum was taken using a home-built NIR spectroscopy setup. The excitation source was a 200-W ozone-free mercury/xenon lamp (Oriel), which was dispersed by a monochromator (Oriel) to generate an excitation line with a bandwidth of 15 nm. The excitation light was allowed to pass through the solution sample in a 1-mm-path cuvette (Starna Cells, Inc.), and the emission was collected in a transmission geometry. The […] was collected in the 790-1500 nm emission range. The emitted light was directed into a spectrometer (Acton SP2300i) equipped with a liquid-nitrogen-cooled InGaAs linear array detector (Princeton OMA-V). Spectra were corrected post-collection to account for the sensitivity of the detector and extinction feature of the filter. Photostability was determined by spiking CH1055-PEG into serum, PBS, and DI and exposing it in a 1-mm path length cuvette (Starna Cells, Inc.) to continuous 808 nm excitation at a power density of 0.3 W/cm^2 and taking images every 10 seconds for ˜1 hour. Stability was determined by measuring the ROI and comparing the fluorescence intensity to the starting fluorescence signal.
In order to further increase solubility, the carboxylic acid groups of CH1055 were PEGylated with 2 kDa PEG-NH2 through EDC/NHS chemistry.

[3] = Preliminary animal imaging of CH-4T excretion; type: in vivo
From the text: It is a small molecule dye similar to ICG, Cy5, and IR800, and enables easier access to NIR-II imaging, as it doesn't require a specialized knowledge of nanomaterials which make up the majority of NIR-II fluorophores.

[4] = NIR-II fluorescence brightness and quantum yield in DI, PBS, FBS, serum and serum proteins; type: physicochemical
From the text: The compound contains a taurine (2-aminoethanesulfonic acid) group at the carboxyl linkers of CH1055. […] Sulfonating the present NIR-II dyes is a general procedure that can be applied to a number of the NIR-II small molecules described above to increase their solubility.
The absorbance value of both fluorophores (OD 0.02) in each respective media is equivalent at the excitation wavelength (808 nm) to compare relative quantum yields. NIR-IIa fluorescent image of a C57 mouse brain (1300 LP) after an intravenous injection of equivalent doses of CH-4T (200 ms exposure; Panel B) and of CH1055-PEG (1 s exposure; Panel D). The image intensity scales have been compensated to account for the differences in the exposure times needed to clearly resolve brain vasculature.
(§1) This fluorescence enhancement produces a serum quantum yield of up to ˜10% which is on par with ICG and is among the highest quantum yields of all NIR-II fluorophores (including carbon nanotubes). While soluble in PBS, the quantum yield of CH-4T was determined to be ˜0.07%, yet is enhanced ˜60× through complexation with serum proteins in FBS.
Increased brightening of CH-4T also results from protein interactions. A fluorescence emission spectrum of CH1055-PEG and CH-4T in both FBS and PBS was determined. […] The increased intensity (40,000 a.u. around 1000 nm) for CH-4T in FBS was observed.
While CH-4T complexed with proteins produces an incredibly bright contrast agent, pretreatment of the proteins prior to complexation and subsequent isolation of the bright dye-protein complexes can introduce a further increase in brightness. For instance, a short 10 minutes of horn sonication of FBS prior to mixing with CH-4T followed by 10 minutes of heating in a hot water bath at ˜80° C. can boost the brightness of the CH-4T-protein complex by ˜3-4-fold. The effects on the fluorescence emission spectrum of heating and pre-horn sonicating can be seen while the brightness difference of an FBS-CH-4T solution before and after treatment (data not shown). […]

[5] = Aqueous solubility; type: physicochemical; conditions: water / PBS
[6] = tested on: human and bovine albumin; assay: Binding of CH-4T to serum proteins; conditions: whole blood, HDL
Experimental: as §1

[7] = tested on: shoulder xenograft U87MG tumors; assay: Lymph node / lymphatic vasculature and tumor imaging after intradermal injection; type: in vivo, immunodeficient nude mice; conditions: intradermal injection near base of tail
From the text: An emerging fluorescent imaging application of ICG currently undergoing clinical trials is in detecting sentinel lymph nodes (SLN) for surgical resection.(28-30) Selectively removing sentinel lymph nodes alleviates lymphedema and other ailments that would be caused by total lymph node removal performed to prevent cancer metastasis. Fluorescent imaging has many benefits compared to the more traditional detection means that include injecting a colored dye, a radioisotope, or a combination of both. ICG is typically injected near a tumor to visualize the lymphatic vessels draining the tumor as well as the sentinel lymph nodes. […] Immediately after injection, CH1055-PEG drainage into the internodal collecting lymphatic vasculature and the inguinal lymph node became apparent. […] (data not shown)
The gradual increase in fluorescence emanating from the tumor occurred while all lymphatic vessels and nodes were still visible.

NIR-I absorption maximum [1]: 700 nm | wavelength of maximum photoacoustic signal ([1]; NIR pulsed laser, 680-970 nm scan): 700 nm | peak fluorescent emission wavelength [2]: ~1055 nm
Compound: O=C(O)CCc1ccc(N(c2ccc(CCC(=O)O)cc2)c2ccc(-c3c4c(c(-c5ccc(N(c6ccc(CCC(=O)O)cc6)c6ccc(CCC(=O)O)cc6)cc5)c5nsnc35)N=S=N4)cc2)cc1 [CH1055]

excretion kinetics [3]: resemble that of ICG | quantum yield ([4]; in PBS): ~0.07% | serum quantum yield ([4]; in serum, complexed with serum proteins): ≤ 10% | quantum yield ([4]; with treated FBS (sonicated, heated)): ~13% | aqueous solubility [5]: highly soluble | binding to serum proteins [6]: strong binding
Compound: O=C(CCc1ccc(N(c2ccc(CCC(=O)NCCS(=O)(=O)O)cc2)c2ccc(-c3c4c(c(-c5ccc(N(c6ccc(CCC(=O)NCCS(=O)(=O)O)cc6)c6ccc(CCC(=O)NCCS(=O)(=O)O)cc6)cc5)c5nsnc35)N=S=N4)cc2)cc1)NCCS(=O)(=O)O [CH-4T]

liver signal after intradermal injection [7]: obvious liver signal
Compound: CC1(C)C(/C=C/C=C/C=C/C=C2\N(CCCCS(=O)(=O)O)c3ccc4ccccc4c3C2(C)C)=[N+](CCCCS(=O)(=O)[O-])c2ccc3ccccc3c21 [ICG, indocyanine green]
tumor fluorescence after intradermal injection [7]: little tumor signal was observed

Source: patent US10124111B2, “Small molecule dye for molecular imaging and photothermal therapy” (The Board of Trustees of the Leland Stanford Junior …, priority 2015, dated 2018)
